In ChEMBL document CHEMBL4483862, “Open-source discovery of chemical leads for next-generation chemoprotective antimalarials” (2018):

System: Plasmodium berghei
Assay: Luciferase/luciferin-expressing antifolate-resistant parasites were used to infect a culture of HepG2 cells that were pre-incubated with compounds. Infected hepatocytes emit light due to the luciferase reaction. Assay results are presented as the percent inhibition of light emission compared to control. […]
Type: functional
Conditions: sporozoite; for IC90: read-out: LUCIFERASE INFECTION ASSAY - IC90

| SMILES | IC90 [µM] | other results |
| --- | --- | --- |
| CCOC(=O)c1c(NC(=O)C(C)N2CCN(C(=O)c3ccco3)CC2)sc2c1CCCC2 (stereo not given) | > 10 | IC50 (PBLUC_HILL_SLOPE 16.5, PBLUC_R_SQUARED 0.188, read-out: LUCIFERASE INFECTION ASSAY - IC50): 9.7 µM |
| O=C(Nc1csc([N+](=O)[O-])c1)Nc1ccccc1Cl | > 11.1 | IC50 (PBLUC_HILL_SLOPE 16.6, PBLUC_R_SQUARED 0.0194, read-out: LUCIFERASE INFECTION ASSAY - IC50): 11 µM |
| COc1ccc(-c2cc(C(=O)NNC3=NCCC3)c3c(C)nn(-c4ccccc4)c3n2)cc1 | > 10 | IC50 (PBLUC_HILL_SLOPE 16.7, PBLUC_R_SQUARED 0.16, read-out: LUCIFERASE INFECTION ASSAY - IC50): 9.26 µM |
| CCOc1cccc(/C=C/c2ccc3cccc(O)c3n2)c1O | 10.6 | IC50 (PBLUC_HILL_SLOPE 16.2, PBLUC_R_SQUARED 0.451, read-out: LUCIFERASE INFECTION ASSAY - IC50): 9.23 µM |
| OCCNCc1cc(Br)ccc1OCc1ccc(F)cc1 | 3.12 | IC50 (PBLUC_HILL_SLOPE 16.8, PBLUC_R_SQUARED 0.362, read-out: LUCIFERASE INFECTION ASSAY - IC50): 2.74 µM |
| OC(COc1ccc(Cl)cc1)CN1CCC(Cc2ccccc2)CC1 (stereo not given) | 8.19 | IC50 (PBLUC_HILL_SLOPE 16.8, 4.66, PBLUC_R_SQUARED 0.391, 0.0786, read-out: LUCIFERASE INFECTION ASSAY - IC50): 6.33 µM |
| OCc1ccc(-c2cnc3cnc(-c4cccs4)cn23)cc1 | 10.6 | IC50 (PBLUC_HILL_SLOPE 16.2, PBLUC_R_SQUARED 0.35, read-out: LUCIFERASE INFECTION ASSAY - IC50): 9.27 µM |
| N#Cc1c(N2CCCC2)nn(C(=O)Nc2ccc(Cl)c(Cl)c2)c1N | 3.89 | IC50 (PBLUC_HILL_SLOPE 16.1, PBLUC_R_SQUARED 0.491, read-out: LUCIFERASE INFECTION ASSAY - IC50): 3.39 µM |
| O=C1c2ccccc2C(=Cc2ccsc2)c2ccccc21 | > 10 | IC50 (PBLUC_HILL_SLOPE 16.4, 0.310, PBLUC_R_SQUARED 0.161, 0.532, read-out: LUCIFERASE INFECTION ASSAY - IC50): 4.9 µM |
| N#Cc1ccc(NC(=O)NNc2ccc(Cl)cc2Cl)cc1 | > 10 | IC50 (PBLUC_HILL_SLOPE 16.6, PBLUC_R_SQUARED 0.338, read-out: LUCIFERASE INFECTION ASSAY - IC50): 9.59 µM |
| Cc1ccn2c(=O)cc(CN3C(=O)NC4(CCCc5ccccc54)C3=O)nc2c1 (stereo not given) | > 10 | IC50 (PBLUC_HILL_SLOPE 16.8, PBLUC_R_SQUARED 0.349, read-out: LUCIFERASE INFECTION ASSAY - IC50): 9.44 µM |
| CC1(C)CC(Nc2ncnc3sc(-c4ccccc4)cc23)CC(C)(C)N1 | > 10 | IC50 (PBLUC_HILL_SLOPE 16.4, PBLUC_R_SQUARED 0.0474, read-out: LUCIFERASE INFECTION ASSAY - IC50): 8.84 µM |
| CCOC(=O)c1[nH]c(C)c(C(=O)CN(C)S(=O)(=O)c2c(C)noc2C)c1C | 3.73 | IC50 (PBLUC_HILL_SLOPE 16.9, PBLUC_R_SQUARED 0.509, read-out: LUCIFERASE INFECTION ASSAY - IC50): 3.28 µM |
| CS(=O)(=O)Nc1cccc(-c2cn3c(-c4ccc(CO)cc4)cnc3cn2)c1 | 8.14 | IC50 (PBLUC_HILL_SLOPE 16.4, PBLUC_R_SQUARED 0.351, read-out: LUCIFERASE INFECTION ASSAY - IC50): 7.12 µM |
| Cc1ccc(Oc2ccc(NC(=O)CCc3cccnc3)cc2)cc1 | 9.55 | IC50 (PBLUC_HILL_SLOPE 16.6, PBLUC_R_SQUARED 0.382, read-out: LUCIFERASE INFECTION ASSAY - IC50): 8.37 µM |
| CN(Cc1ccc(C(=O)NC2CC2)cc1)S(=O)(=O)c1ccc(Br)s1 | 9.55 | IC50 (PBLUC_HILL_SLOPE 16.6, PBLUC_R_SQUARED 0.228, read-out: LUCIFERASE INFECTION ASSAY - IC50): 8.37 µM |
| COc1cc2c(cc1NC(=O)c1cnn(C(C)(C)C)c1C)oc1ccccc12 | 3.66 | IC50 (PBLUC_HILL_SLOPE 16.6, PBLUC_R_SQUARED 0.596, read-out: LUCIFERASE INFECTION ASSAY - IC50): 3.21 µM |
| COc1ccc(-c2cnc3sc(NCCc4ccc(S(N)(=O)=O)cc4)nn23)cc1OC | 6.81 | IC50 (PBLUC_HILL_SLOPE 16.2, PBLUC_R_SQUARED 0.321, read-out: LUCIFERASE INFECTION ASSAY - IC50): 5.94 µM |
| CC(C1CC2CCC1C2)N1C(=O)C(=O)N(CC(=O)Nc2cccc(F)c2)C1=O (stereo not given) | 3.86 | IC50 (PBLUC_HILL_SLOPE 16.7, 2.98, PBLUC_R_SQUARED 0.617, 0.740, read-out: LUCIFERASE INFECTION ASSAY - IC50): 4.13 µM |
| Cc1cccc2sc(C(=O)NCc3cccc(NS(N)(=O)=O)c3)c(Cl)c12 | 1.3 | IC50 (PBLUC_HILL_SLOPE 16.9, PBLUC_R_SQUARED 0.264, read-out: LUCIFERASE INFECTION ASSAY - IC50): 1.14 µM |

| SMILES | IC90 [µM] | other results |
| --- | --- | --- |
| COc1ccc(-c2ccc3ncc(-c4ccoc4)n3n2)cc1OC | > 10 | IC50 (PBLUC_HILL_SLOPE 16.2, PBLUC_R_SQUARED 0.0483, read-out: LUCIFERASE INFECTION ASSAY - IC50): > 10 µM |
| CC(c1nc(N)nc(N(C)C)n1)N1CCN(C(c2ccc(F)cc2)c2ccc(F)cc2)CC1 (stereo not given) | 3.79 | IC50 (PBLUC_HILL_SLOPE 16.2, PBLUC_R_SQUARED 0.638, read-out: LUCIFERASE INFECTION ASSAY - IC50): 3.31 µM |
| Cc1onc(-c2ccc(Cl)cc2Cl)c1-c1csc(Nc2c(Cl)cccc2Cl)n1 | > 7 | IC50 (PBLUC_HILL_SLOPE 16.2, PBLUC_R_SQUARED 0.0753, read-out: LUCIFERASE INFECTION ASSAY - IC50): 6.45 µM |
| CCOc1ccc(-c2nc(C(=O)Nc3ncccc3O)cs2)cc1 | 3.84 | IC50 (PBLUC_HILL_SLOPE 16.6, PBLUC_R_SQUARED 0.386, read-out: LUCIFERASE INFECTION ASSAY - IC50): 3.36 µM |
| Cc1noc(C)c1C(=O)NNC(=O)c1ccc(Cl)cc1 | > 11.2 | IC50 (PBLUC_HILL_SLOPE 16.2, PBLUC_R_SQUARED 0.359, read-out: LUCIFERASE INFECTION ASSAY - IC50): 11 µM |
| O=S(=O)(c1c(Cl)cc(Br)cc1Cl)N1CCN(C(=S)NC2CC3CCC2C3)CC1 (stereo not given) | > 10 | IC50 (PBLUC_HILL_SLOPE 16.2, PBLUC_R_SQUARED 0.114, read-out: LUCIFERASE INFECTION ASSAY - IC50): 8.93 µM |
| CCOc1ccc(NCC(=O)c2ccc(-c3ccccc3)cc2)cc1 | > 10 | IC50 (PBLUC_HILL_SLOPE 16.8, 2.19, PBLUC_R_SQUARED 0.173, 0.582, read-out: LUCIFERASE INFECTION ASSAY - IC50): 8.7 µM |
| CC(C)(C)NC(=O)CNC(=O)c1cc(-c2ccccc2)nc2c1cnn2Cc1ccccc1 | > 10 | IC50 (PBLUC_HILL_SLOPE 16.4, PBLUC_R_SQUARED 0.327, read-out: LUCIFERASE INFECTION ASSAY - IC50): 9.02 µM |
| CCOC(=O)c1sc(N)c(C#N)c1CSc1nnc(Cc2cccc3ccccc23)n1C1CCCCC1 | 9.87 | IC50 (PBLUC_HILL_SLOPE 16.7, PBLUC_R_SQUARED 0.489, read-out: LUCIFERASE INFECTION ASSAY - IC50): 8.65 µM |
| O=C(NCCN1CCc2ccccc2C1)c1cc2ccccc2cc1O | 3.77 | IC50 (PBLUC_HILL_SLOPE 16.8, PBLUC_R_SQUARED 0.317, read-out: LUCIFERASE INFECTION ASSAY - IC50): 3.31 µM |
| CC1CCC(N(C)C(=O)C2CCN(S(=O)(=O)c3ccc4c(c3)CCC4)CC2)CC1 (stereo not given) | > 10 | IC50 (PBLUC_HILL_SLOPE 16.6, PBLUC_R_SQUARED 0.0251, read-out: LUCIFERASE INFECTION ASSAY - IC50): 9.82 µM |
| O=c1c2ccccc2nc(SCc2cn3cc(Cl)ccc3n2)n1-c1ccccc1F | > 10 | IC50 (PBLUC_HILL_SLOPE 16.9, PBLUC_R_SQUARED 0.0163, read-out: LUCIFERASE INFECTION ASSAY - IC50): 8.93 µM |
| CNc1snc(C)c1C(=O)Nc1ccc(OC)c(Cc2ccccc2)c1 | 1.1 | IC50 (PBLUC_HILL_SLOPE 16.3, PBLUC_R_SQUARED 0.619, read-out: LUCIFERASE INFECTION ASSAY - IC50): 0.961 µM |
| OC(COc1ccc(Cl)c(Cl)c1)CN1CCC(Nc2nccc(C(F)(F)F)n2)CC1 (stereo not given) | > 7.09 | IC50 (PBLUC_HILL_SLOPE 16.2, PBLUC_R_SQUARED 0.0623, read-out: LUCIFERASE INFECTION ASSAY - IC50): 6.96 µM |
| Cc1c(/N=c2\scc(-c3cc4ccccc4o3)n2/N=C/c2ccsc2)c(=O)n(-c2ccccc2)n1C | 4.03 | IC50 (PBLUC_HILL_SLOPE 16.9, PBLUC_R_SQUARED 0.235, read-out: LUCIFERASE INFECTION ASSAY - IC50): 3.54 µM |
| CCCn1c(NC(=O)CSc2ccc3c4c(cccc24)C(=O)c2ccccc2-3)nc2ccccc21 | 3.87 | IC50 (PBLUC_HILL_SLOPE 16.8, PBLUC_R_SQUARED 0.332, read-out: LUCIFERASE INFECTION ASSAY - IC50): 3.39 µM |
| CCc1ccc(-n2c(SC3CCCCC3NS(=O)(=O)c3ccccc3)nc3ccccc3c2=O)cc1 (stereo not given) | 4.14 | IC50 (PBLUC_HILL_SLOPE 16.5, PBLUC_R_SQUARED 0.215, read-out: LUCIFERASE INFECTION ASSAY - IC50): 3.63 µM |
| COc1ccccc1/C=C(/C(=O)OCc1cn2ccccc2c1C#N)c1ccccc1 | > 10 | IC50 (PBLUC_HILL_SLOPE 16.4, PBLUC_R_SQUARED 0.216, read-out: LUCIFERASE INFECTION ASSAY - IC50): 9.92 µM |
| Cc1cccc(-c2cn3c(-c4cccc(C(=O)N5CCN(C)CC5)c4)cnc3cn2)c1C | 3 | IC50 (PBLUC_HILL_SLOPE 16.5, PBLUC_R_SQUARED 0.755, read-out: LUCIFERASE INFECTION ASSAY - IC50): 2.63 µM |
| Cc1c(C(=O)Nc2ccc(Oc3ccccc3)cc2)[nH]c2c1C(=O)CCC2 | > 10 | IC50 (PBLUC_HILL_SLOPE 16.6, PBLUC_R_SQUARED 0.701, read-out: LUCIFERASE INFECTION ASSAY - IC50): 9.52 µM |
